“Also recorded” adds a separate entry of the source.
What was measured:
[1] = tested on: sympathetic nerves of heart and kidney; assay: tonic and reflectorial bioelectric activity in sympathetic nerves of heart and kidney; assay type: in vivo; settings: cats
Excerpt: In experiments on anesthetized (urethane+chloralose) and immobilized (succinylcholine bromide) cats (14 tests) there has been studied the effect of the preparation in various doses on the tonic and reflectorial bioelectric activity in sympathetic nerves of heart and kidney. Somatosympathetic reflexes are caused by electric irritation of afferent A- and C- fibers of the tibial nerve.

[2] = tested on: systemic arterial pressure; assay: effect on arterial pressure in cats and dogs; assay type: in vivo
Protocol: The effect of the preparation on the arterial pressure has been also studied. […] The average value of the maximum drop of pressure during the first 10 minutes after the administration is 8-10% of the initial level. In doses of 500 mg/kg the preparation causes hypotensive reaction with the intensity of 15-18% of the initial level at the duration of the effect of 20-30 minutes.

[3] = tested on: vessels of heart, kidney and limbs; assay: resistogram of vessels of heart, kidney and limbs; assay type: in vivo
Excerpt: To find out the participance of the vascular factor in redistribution of regional blood flow, resistogram of vessels of heart, kidney and limbs has been recorded. […] The effect of the preparation on the heart activity and basic characteristics of hemodynamics has been also studied.

coronary blood flow = assay: rate of coronary blood flow and oxygen absorption by myocardium in anesthetized cats; assay type: in vivo
Protocol: At the same time, the content of oxyhemoglobin in the coronary venous blood is determined by the photometrical method and the absorption of oxygen by myocardium is calculated on the basis of the arterio-venous difference value.
The effect duration varies within the range of from 5 to 10 minutes. With increasing the preparation dose up to 500 mg/kg, the intensity and duration of the effect are increased reaching respectively 108±12% and 30-40 minutes.
Calculation of the amount of the heart-absorbed oxygen points to it explicit increase (29±2.3%).

rats = assay: chronical toxicity in rats, intraperitoneal; assay type: in vivo
acute toxicity on rats = settings: rat, in vivo
Excerpt: (§1) The acute toxicity of the preparation according to the present invention has been studied on mice and rats.

[4] = tested on: activity of heart and hemodynamics; assay: phase curve analysis of aortic blood flow: activity of heart and hemodynamics in anesthetized cats; assay type: in vivo; set-up: Maximum blood flow: unit not given here; settings: for Time of systolic ejaculation: background 0.14 ± 0.008; for Time of diastolic relaxation: background 0.22 ± 0.01; for Minute work: background 0.88 ± 0.09; for Systolic (beat) volume: background 1.93 ± 0.12; for Maximum blood flow: background 19.7 ± 2.1; for Maximum linear speed: background 35 ± 1.9; for Average arterial pressure: background 148 ± 7.6; for Pulse frequency: background 181 ± 5; for Minute volume: background 372 ± 26
Excerpt: (§2) In experiments on cats and dogs under the general anesthesia conditions the volumetric flow rate of blood flow in the ascending part of the aortic arch has been recorded by the electromagnetic method using an electromagnetic blood flow meter and vessel sensors of appropriate size. On the basis of analysis of the phase curve of the blood flow, the main characteristics of heart activity and hemodynamics have been calculated. […] The averaged data of analysis of phase curves of the blood flow in cat's aorta under general anesthesia conditions (8 tests) are given in the Table hereinbelow.
Effect of the preparation (250 mg/kg intravenously) on the
activity of heart and basic characteristics of hemodynamics

blood flow in aorta = assay: volumetric blood flow in the ascending aortic arch, anesthetized cats and dogs; assay type: in vivo; settings: 200-500 mg/kg intravenously
Excerpt: as §2

acute toxicity on mice = assay type: in vivo; settings: mouse, in vivo
Excerpt: as §1

mice = assay: acute toxicity on mice; assay type: in vivo
Excerpt: as §1

cardio-vascular effects = assay: overall cardiovascular effects / conclusions of the tests; settings: in vivo
Excerpt: The results of the above-described tests allow the following conclusions characterizing the properties of the medicated compound according to the present invention.

[5] = tested on: ischemic zone of myocardium; assay: model of acute attack of stenocardia (Sekeresh's model) in anesthetized dogs; assay type: in vivo
Excerpt: The effect of the preparation on the functional state of the ischemic center has been studied in experiments on dogs under the conditions of general anesthesia. The effects caused by the preparation have been studied on the model of an acute attack of stenocardia (Sekeresh's model). The functional state of the ischemic focus has been assessed through analysis of epicardial heart electrograms in the ischemic zone and adjacent regions. The stenocardiac attack is caused by way of a partial occlusion of the coronary artery (left descending artery) and including a high rhythm of heart contractions (up to 250 beats/minute) by way of electrical stimulation of the heart auricula. Under these conditions there take place changes of the heart electrograms typical for acute ischemia of myocardium.

solubility in water = assay type: physicochemical; settings: white crystalline powder
[6] = 50 mg/kg intravenously, cats and dogs
[7] = intraperitoneal 200 mg/kg for 6 months and 1,000 mg/kg for 1 month
[8] = 5 minutes after 250 mg/kg intravenously
[9] = 10 minutes after 250 mg/kg intravenously
[10] = 20 minutes after 250 mg/kg intravenously
[11] = 40 minutes after 250 mg/kg intravenously

## CN1C(=O)N(C)C2C1N(C)C(=O)N2C (centres unmarked) [the preparation, 2,4,6,8-tetramethyl-2,4,6,8-tetraazobicyclo-/3,3,0/-octanedione-3,7]
[1]; 50 mg/kg
  pressor responses caused by tetanic irritation of tibial nerve: remain unchanged
  tonic and reflectorial activity in sympathetic nerves: does not noticeably change the character and intensity of tonic and reflectorial activity in sympathetic nerves
[1]; 50 mg/kg, in a certain number of the experiments
  spontaneous activity and reflectorial responses: slight amplification of spontaneous activity and facilitation of reflectorial responses
[1]; 250-500 mg/kg
  C-responses of the reflectorial discharges: suppressed
  inhibiting component of the reflectorial response: amplification of the inhibiting component of the reflectorial response
  tonic activity in sympathetic nerves: weakly inhibited
[2]; [6]
  arterial pressure reaction during the first 5 minutes: uncertain hypertensive reaction
  effect on the systemic arterial pressure: no essential effect on the systemic arterial pressure
[2]; 250 mg/kg, cats and dogs
  changes of the arterial pressure: opposite-sign changes of the arterial pressure mainly of hypotensive character
[2]; 250 mg/kg, first 10 minutes after administration, cats and dogs
  average value of the maximum drop of pressure: 8-10 % of the initial level
[2]; 500 mg/kg, cats and dogs
  duration of the hypotensive effect: 20 to 30 min
  hypotensive reaction intensity: 15-18 % of the initial level
[2]; dog, in vivo
  influence on the adrenoreactive structures of the vessels: does not influence the adrenoreactive structures of the vessels
[2]; isoproterenol 2.5 μg/kg
  depressor reactions on isoproterenol: does not change the character
[2]; noradrenaline 3 μg/kg
  pressor reactions of arterial pressure on noradrenaline: does not change the character
[3]; heart, kidney and limbs
  tension of vessels: monodirectionally lowers tension of all vessels
[3]; in vivo
  resistance of coronary vessels versus peripheral vessels: lowered to a greater extent than that of peripheral vessels
Coronary blood flow
  arterio-venous difference relative to oxygen: lowering the arterio-venous difference relative to oxygen; also recorded: decrease in the arterio-venous difference relative to oxygen
  content of oxyhemoglobin in coronary venous blood: increased content of oxyhemoglobin in coronary venous blood
  increase of coronary blood flow versus absorption of oxygen by myocardium: surpasses the absorption of oxygen by myocardium
Coronary blood flow; 50 mg/kg intravenously, average
  increase of coronary blood flow: 32±5%
Coronary blood flow; 500 mg/kg
  duration of coronary blood flow effect: 30 to 40 min
  increase of coronary blood flow: 108±12%
Coronary blood flow; calculated from arterio-venous difference
  increase of the amount of the heart-absorbed oxygen: 29±2.3%
rats; [7]
  accumulation: not accumulated
  effect on hematoplasty and urination: does not affect hematoplasty and urination
rats; kidney, liver, spleen, heart and the like, intraperitoneal 200 mg/kg 6 months, 1,000 mg/kg 1 month
  histological changes in the visceral organs: no pathological changes in the visceral organs
Acute toxicity on rats
  LD50: 3450 mg/kg
[4]; 250 mg/kg intravenously
  heart function: capable of increase the heart function
[4]; [8]
  Time of systolic ejaculation: 0.12 ± 0.01 s
  Time of diastolic relaxation: 0.22 ± 0.01 s
  Minute work: 1.12 ± 0.15 kgm
  Systolic (beat) volume: 2.22 ± 0.15 mL
  Maximum blood flow: 30 ± 8.2
  Maximum linear speed: 41 ± 2.7 cm/s
  Average arterial pressure: 137 ± 6.9 mm Hg
  Pulse frequency: 190 ± 6 b/min
  Minute volume: 464 ± 38 mL/min
[4]; [9]
  Time of systolic ejaculation: 0.11 ± 0.09 s
  Time of diastolic relaxation: 0.21 ± 0.01 s
  Minute work: 1.23 ± 0.11 kgm
  Systolic (beat) volume: 2.34 ± 0.18 mL
  Maximum blood flow: 34 ± 2.6
  Maximum linear speed: 49 ± 2.8 cm/s
  Average arterial pressure: 126 ± 8.1 mm Hg
  Pulse frequency: 197 ± 5 b/min
  Minute volume: 488 ± 43 mL/min
[4]; [10]
  Time of systolic ejaculation: 0.13 ± 0.01 s
  Time of diastolic relaxation: 0.20 ± 0.01 s
  Minute work: 0.97 ± 0.08 kgm
  Systolic (beat) volume: 2.01 ± 0.15 mL
  Maximum blood flow: 28 ± 1.4
  Maximum linear speed: 38 ± 2.3 cm/s
  Average arterial pressure: 139 ± 7.4 mm Hg
  Pulse frequency: 191 ± 7 b/min
  Minute volume: 415 ± 32 mL/min
[4]; [11]
  Time of systolic ejaculation: 0.13 ± 0.008 s
  Time of diastolic relaxation: 0.23 ± 0.009 s
  Minute work: 0.83 ± 0.10 kgm
  Systolic (beat) volume: 1.97 ± 0.12 mL
  Maximum blood flow: 21.4 ± 2.2
  Maximum linear speed: 33. ± 3.1 cm/sec
  Average arterial pressure: 146 ± 8.8 mm Hg
  Pulse frequency: 183 ± 7 b/min
  Minute volume: 397 ± 33 mL/min
Blood flow in aorta
  duration of increased blood flow in aorta: 30 to 40 min
  increase of blood flow in aorta: 50-70%
  tachycardia: uncertainly pronounced tachycardia
Acute toxicity on mice
  LD50: 3800 mg/kg
mice
  LD50: 3,800 mg/kg of the body weight
cardio-vascular effects
  arterial pressure: no substantial change of arterial pressure
  colateral blood flow in deep (endocardial) layers of myocardium: contributes to the development of the colateral blood flow in deep (endocardial) layers of myocardium
  contractibility of myocardium (inotropic effect): positive inotropic effect; also recorded: increases contractibility of myocardium
  frequency of heart contractions: without affecting the frequency of heart contractions
  functional state of the ischemic centre: capable of improving functional state of the ischemic centre; also recorded: capable of improve the functional state of the ischemic centre
  lactate in the blood outflowing from the ischemic zone: lowering the content of lactate in the blood outflowing from the ischemic zone
  sympathetic tonus of heart and vessels: capable of inhibiting the sympathetic tonus of heart and vessels
  vascular component of pain reactions: capable of inhibiting the sympathetic tonus of heart and vessels, as well as vascular components of pain reactions; also recorded: suppresses the vascular component of pain reactions
  volumetric rate of total coronary blood flow: increases the volumetric rate of total coronary blood flow
[5]; 200 mg/kg, dogs
  ischemic changes of epicardial electrograms in the zone of ischemia: inhibited the development of ischemic changes of epicardial electrograms in the zone of ischemia
[5]; dogs
  blood inflow into the ischemic zone (retrograde blood flow): considerably increase the blood inflow into the ischemic zone
[5]; experimental model of acute myocardium ischemia
  activity compared with nonachlazine (sum of pharmacological effects): more active (as regards the sum of pharmacological effects) than the known preparation nonachlazine
Solubility in water
  solubility in water: well soluble in water
